Measurements from paper PMC10060354, “Discovery of a small molecule ligand of FRS2 that inhibits invasion and tumor growth” (Cellular Oncology, 2022).
In brackets after ≈: the same amount, converted by molar mass. Where two headings read alike, the source gives them in different places.

Assays:
[1] = test system: HepG2 human hepatocellular carcinoma cells; test: Cell viability (cytotoxicity, MTT) using HepG2; assay type: cell-based; details: for MEC: 72h, 3 replicas, NR = No response (Summary sheet); for MTT (MEC) Minimum effective concentration / MTT (AC50) Conc at which 50% of maximum efficacy is reached: 72 h, summary sheet
Protocol: (§1) HepG2 human hepatocellular carcinoma cells were plated on 96-well tissue culture polystyrene plates for 24 h prior to dosing of the cells. The shortlisted hits were diluted in DMSO and serial dilutions are made 1% DMSO in growth media. Compounds at 8 concentrations in triplicate was then incubated for 72 h. Appropriate blanks and controls were run alongside the assay. One h prior to the end of the incubation period, the cells were loaded with MTT [yellow; 3-(4,5-dimethyl-2-thiazolyl)-2,5-diphenyl-2H-tetrazolium bromide], the plates were dried and re-solubilized using DMSO. The plates were then scanned at 570 nm using a plate reader.
(§2) The minimum effective concentration was determined from the lowest concentration whose mean value exceeds the significance level, provided either a clear dose–response relationship was observed, or at least two consecutive concentration points were above the significance level.

[2] = Cell viability (cytotoxicity, MTT) using HepG2; assay type: cell-based, human; details: human, HepG2 cells, 72 h, summary sheet, read-out: MTT (AC50) Conc at which 50% of maximum efficacy is reached
Protocol: as §1, §2

DAOY cells = test: Spheroid invasion assay (SIA), bFGF-induced collagen I invasion; assay type: cell-based, human; details: for functional activity in SIA (result in words): DAOY, bFGF-induced, 1, 5 and 10 µM
Summary of the method: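 Spheroids formed over 24–72 h were embedded in collagen I (final 1.75 mg/ml) and stimulated with bFGF (100 ng/ml unless stated), HGF 30 ng/ml or EGF 20 ng/ml with compound in DMSO. Invasion distance was quantified 24–48 h after embedding.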

[3] = Semi-thermodynamic solubility; assay type: physicochemical; details: for solubility / solubility thermodynamic: PBS, aqueous buffer, thermodynamic from solid; for solubility: Room Temp, Overnight, LC-MSMS; for solubility (result in words): Supplementary Table 2; for solubility thermodynamic: overnight; for solubility thermodynamic / Solubility (class in words): summary sheet
Protocol: In vitro ADME-T assays were performed by Cyprotex (Cyprotex Discovery, Cheshire, UK). […] The solution was agitated at ambient temperature overnight. The solutions were then centrifuged for 30 min at 3000 rpm at RT. The supernatant was removed and centrifuged for a further 30 min under the same conditions. An aliquot of the resulting supernatant was diluted in 50% methanol in water (containing an internal standard for MS analysis) prior to analysis by LC–MS/MS. […] These stocks were diluted in 50% methanol in water (containing an internal standard for MS analysis) prior to analysis by LC–MS/MS. The solubility of the shortlisted hits was calculated from a linear or quadratic fit of the standard curve.

[4] = Microsomal metabolic stability; assay type: in vitro ADME; details: human, pooled liver microsomes; for half-life at 1 µM: pH 7.4, liver microsomes; for microsomal CLint at 1 µM: pH 7.4, read-out: Metabolic stability - Intrinsic clearance (CI)
Protocol: Pooled liver microsomes were purchased from Xenotech (H0500) and were stored according to manufacturer’s instructions prior to use. […] A minus co-factor control incubation was included for each compound tested where 0.1 M phosphate buffer pH 7.4 was added instead of NADPH. Two control compounds were included with each species. All incubations were performed singularly for each shortlisted hit. Each compound was incubated for 0, 5, 15, 30 and 45 min. The minus co-factor was incubated for 45 min only. The reactions were stopped by transferring incubate into acetonitrile at the appropriate time points in a 1:3 ratio. The termination plates were centrifuged at 3000 rpm for 20 min at 4 °C to precipitate the protein. Following protein precipitation, the supernatant were combined in cassette of up to 4 compounds, internal standard for MS analysis was added and samples were analyzed using LC–MS/MS. From a plot of In peak area ratio (compound peak area/internal standard peak area) against time, the gradient of the lines were determined. Subsequently, half-life and intrinsic clearance were calculated using the following equations. Eliminationrateconstant(k)=(-gradient)Half-life(t1/2)(min)=0.693/kIntrinsicclearance(CLint)(μl/min/mgprotein)=Vx0.693/t1/2 where V = Incubation volume (µl) / Microsomal protein (mg)

[5] = CaCo-2 permeability (bi-directional); details: human
Protocol: Caco-2 cells obtained from the ATCC were used between passage numbers 40—60. Cells were seeded onto Millipore Multiscreen Transwell plates at 1 × 10^5 cells/cm^2. The cells were cultured in DMEM and media was changed every two or three days. On day 20, the permeability study was performed. […] Cells were then incubated with HBSS at the desired pH in both apical and basolateral compartments for 40 min to stabilize physiological parameters.
The fluorescent integrity marker lucifer yellow was also included in the dosing solution. Analytical standards were prepared from test compound DMSO dilutions and transferred to buffer, maintaining a 1% v/v DMSO concentration.
For assessment of A-B permeability, HBSS was removed from the apical compartment and replaced with test compound dosing solution. The apical compartment insert was then placed into a companion plate containing fresh buffer (containing 1% v/v DMSO). For assessment of B-A permeability, HBSS was removed from the companion plate and replaced with test compound dosing solution. Fresh buffer (containing 1% v/v DMSO) was added to the apical compartment insert, which was then placed into the companion plate.
Compound permeability was assessed in duplicate. Compounds of known permeability characteristics were run as controls on each assay plate.
Test and control compounds were quantified by LC–MS/MS cassette analysis using a 7-point calibration with appropriate dilution of the samples. The starting concentration (C0) was determined from the dosing solution and the experimental recovery calculated from C0 and both apical and basolateral compartment concentrations. The integrity of the monolayer throughout the experiment was checked by monitoring lucifer yellow permeation using fluorimetric analysis.
The permeability coefficient (Papp) for each compound was calculated from the following equation: Papp=dQ/dtC0×A where dQ/dt was the rate of permeation of the drug across the cells, C0 was the donor compartment concentration at time zero and A was the area of the cell monolayer. C0 was obtained from analysis of the dosing solution.
Efflux ratio (ER) was calculated from mean A-B and B-A data. This was derived from: ER=Papp(B-A)Papp(A-B)

[6] = read-out: Solubility Replicate 1
[7] = read-out: Solubility Replicate 2
[8] = read-out: Solubility Replicate 3
[9] = read-out: t1/2 of clearance (CL1/2), in vitro
[10] = Caco-2, Mean Papp A-B, Caco-2, summary sheet
[11] = Caco-2, Mean Papp B-A, Caco-2, summary sheet
[12] = Caco-2, pH 7.4, Mean % Recovery A2B, HBSS/HBSS, pH 7.4/7.4
[13] = Caco-2, pH 7.4, Mean % Recovery B2A, HBSS/HBSS, pH 7.4/7.4
[14] = Caco-2, pH 7.4, Mean Papp A2B, HBSS/HBSS, pH 7.4/7.4
[15] = Caco-2, pH 7.4, Mean Papp B2A, HBSS/HBSS, pH 7.4/7.4
[16] = Caco-2, pH 7.4, Papp A2B Replicate 1, HBSS/HBSS, pH 7.4/7.4
[17] = Caco-2, pH 7.4, Papp A2B Replicate 2, HBSS/HBSS, pH 7.4/7.4
[18] = Caco-2, pH 7.4, Papp B2A Replicate 1, HBSS/HBSS, pH 7.4/7.4
[19] = Caco-2, pH 7.4, Papp B2A Replicate 2, HBSS/HBSS, pH 7.4/7.4
[20] = Homo sapiens, Daoy, DAOY cells, n = 3 technical replicas, read-out: EC50 for the inhibition of bFGF-induced collagen I invasion
[21] = read-out: Solubility Replicate 4

| Structure (SMILES) | MTT (MEC) Minimum effective concentration [1] | solubility ([3]; read-out: Mean Solubility) | solubility [3, 6] | solubility [3, 7] | solubility [3, 8] | solubility thermodynamic [3] | Solubility (class in words) [3] | half-life at 1 µM ([4]; read-out: t1/2) | microsomal CLint at 1 µM [4] | efflux ratio at 120 min, 10 μM ([5]; Caco-2) | Papp A→B at 120 min, 10 μM [5, 10] | Papp B→A at 120 min, 10 μM [5, 11] | efflux ratio at 120 min, 10 μM ([5]; Caco-2, pH 7.4) | recovery at 120 min, 10 µM [5, 12] | recovery at 120 min, 10 µM [5, 13] | Papp A→B at 120 min, 10 μM [5, 14] | Papp B→A at 120 min, 10 μM [5, 15] | Papp A→B at 120 min, 10 μM [5, 16] | Papp A→B at 120 min, 10 μM [5, 17] | Papp B→A at 120 min, 10 μM [5, 18] | further results |
| --- | --- | --- | --- | --- | --- | --- | --- | --- | --- | --- | --- | --- | --- | --- | --- | --- | --- | --- | --- | --- | --- |
| O=[N+]([O-])c1c(Cl)cc(O)c2c1C1C=CCC1C(c1ccc(Cl)cc1)N2 (stereo not drawn) [Compound 7] | 4.38 µM | 10.4 µM (≈ 3.92 µg/mL) | 11.8 µM (≈ 4.45 µg/mL) | 9.33 µM (≈ 3.52 µg/mL) | 9.97 µM (≈ 3.76 µg/mL) | 10.4 µM (≈ 3.92 µg/mL) | Sparingly | 3.62 min | 383 µL/min/mg | 2.84 | 3.59 ×10⁻⁶ cm/s | 10.2 ×10⁻⁶ cm/s | 2.84 | 15.3% | 37.8% | 3.59 ×10⁻⁶ cm/s | 10.2 ×10⁻⁶ cm/s | 3.41 ×10⁻⁶ cm/s | 3.76 ×10⁻⁶ cm/s | 8.39 ×10⁻⁶ cm/s | toxicity in the MTT assay (result in words) [1]: moderately toxic; MEC [1]: 4.38 µM; AC50 at 72 h [2]: 7.02 µM; functional activity in SIA (result in words) (DAOY cells): performed equally well as 3.18; EC50 (DAOY cells; Homo sapiens, Daoy, 100 ng/ml bFGF, read-out: Collagen I invasion EC50): 2.54 µM; IC50 (DAOY cells; Homo sapiens, DAOY wt): 2.76 µM; solubility (result in words) [3]: sparingly soluble; half-life at 1 µM [4, 9]: 3.62 min; Papp B→A at 120 min, 10 μM [5, 19]: 12 ×10⁻⁶ cm/s |
| COc1ncc(C(C)NC2CC(C)(C)NC(C)(C)C2)cc1Cl (stereo not drawn) [Compound 3.3] | 75.8 µM | > 100 µM | > 100 µM | > 100 µM | > 100 µM | > 100 µM | Freely | 3.91 min | 355 µL/min/mg | 8.01 | 4.79 ×10⁻⁶ cm/s | 38.3 ×10⁻⁶ cm/s | 8.01 | 73.1% | 104% | 4.79 ×10⁻⁶ cm/s | 38.3 ×10⁻⁶ cm/s | 4.98 ×10⁻⁶ cm/s | 4.59 ×10⁻⁶ cm/s | 39.9 ×10⁻⁶ cm/s | MEC [1]: 75.8 µM; AC50 at 72 h [2]: > 100 µM; EC50 (DAOY cells; [20]): 14.3 µM; solubility [3, 21]: > 100 µM; Papp B→A at 120 min, 10 μM [5, 19]: 36.8 ×10⁻⁶ cm/s |
| Cc1[nH]nc(-c2ccc(O)c(C)c2O)c1-c1nc2ccccc2s1 [Compound E12] | 15.6 µM | > 100 µM | > 100 µM | > 100 µM | > 100 µM | > 100 µM | Freely | 5.52 min | 251 µL/min/mg | 5.13 | 4.53 ×10⁻⁶ cm/s | 23.2 ×10⁻⁶ cm/s | 5.13 | 102% | 65.6% | 4.53 ×10⁻⁶ cm/s | 23.2 ×10⁻⁶ cm/s | 3.77 ×10⁻⁶ cm/s | 5.28 ×10⁻⁶ cm/s | 22 ×10⁻⁶ cm/s | toxicity in the MTT assay (result in words) [1]: moderate toxicity; MEC [1]: 15.6 µM; AC50 at 72 h [2]: 23.7 µM; functional activity in SIA (result in words) (DAOY cells): comparable inhibition of invasion; EC50 (DAOY cells; [20]): 18.2 µM; solubility [3, 21]: > 100 µM; solubility (result in words) [3]: freely soluble; half-life at 1 µM [4, 9]: 5.52 min; Papp B→A at 120 min, 10 μM [5, 19]: 24.4 ×10⁻⁶ cm/s |
| O=C(O)c1c(Cl)cc(O)c2c1C1C=CCC1C(c1ccc(Cl)cc1)N2 (stereo not drawn) [Compound 13] | No response | > 100 µM | > 100 µM | > 100 µM | > 100 µM | > 100 µM | Freely | 83 min | 16.7 µL/min/mg | 1.5 | 1.94 ×10⁻⁶ cm/s | 2.91 ×10⁻⁶ cm/s | 1.5 | 86.6% | 85% | 1.94 ×10⁻⁶ cm/s | 2.91 ×10⁻⁶ cm/s | 1.02 ×10⁻⁶ cm/s | 2.86 ×10⁻⁶ cm/s | 2.62 ×10⁻⁶ cm/s | MTT (AC50) Conc at which 50% of maximum efficacy is reached [1]: No response; functional activity in SIA (result in words) (DAOY cells): mild but dose-depended reduction; solubility [3, 21]: > 100 µM; Papp B→A at 120 min, 10 μM [5, 19]: 3.2 ×10⁻⁶ cm/s |
| CC(C)C[C@@H](CO)NCc1cc(O)c2cc(F)ccc2n1 [Compound 3.14] | No response | > 100 µM | > 100 µM | > 100 µM | > 100 µM | > 100 µM | Freely | 29.1 min | 47.6 µL/min/mg | 8.64 | 4.7 ×10⁻⁶ cm/s | 40.6 ×10⁻⁶ cm/s | 8.64 | 70.2% | 73.4% | 4.7 ×10⁻⁶ cm/s | 40.6 ×10⁻⁶ cm/s | 4.69 ×10⁻⁶ cm/s | 4.71 ×10⁻⁶ cm/s | 40 ×10⁻⁶ cm/s | toxicity in the MTT assay (result in words) [1]: no toxicity; MTT (AC50) Conc at which 50% of maximum efficacy is reached [1]: No response; EC50 (DAOY cells; DAOY cells, n = 3 technical replicas, read-out: EC50 for the inhibition of bFGF-induced collagen I invasion): 5.92 µM; EC50 (DAOY cells; [20]): 5.92 µM; solubility [3, 21]: > 100 µM; solubility (result in words) [3]: freely soluble; half-life at 1 µM [4, 9]: 29 min; Papp B→A at 120 min, 10 μM [5, 19]: 41.2 ×10⁻⁶ cm/s |
